Values quoted from earlier work as cited in patent US20250041322A1, “HEAT STRESS RELIEVING AGENT” (Hayashibara Co., Ltd., priority 2018, published 2025).

COc1ccc(C2CC(=O)c3c(O)cc(O[C@@H]4OC(CO)[C@@H](O)C(O)C4O)cc3O2)cc1O (stereo partly drawn) [7-O-β-glucosyl hesperetin]
Water solubility, comparison in words: more water-soluble than hesperidin
